Data: patent US20240041039A1, “COMPOSITIONS AND METHODS FOR CONTROLLING PLANT PATHOGENS INCLUDING NEMATODES” (Kannar Earth Science, Ltd., priority 2022, published 2024)

Tested on: root knot Meloidogyne sp. nematodes
Test: Two-minute contact of live root-knot nematodes with water-based solutions in watch glass
Format: in vivo
Conditions: one drop of water-based solution, fatality recorded within 45 seconds
Procedure: Live root knot nematodes were collected from soil and kept in shallow water in small glass beakers at room temperature. The individual components and combined formulation were prepared according to the following procedures. Aqueous solutions of individual components were prepared at the concentrations as follows: 400 ppm baicalin (95% purity; Shaanxi Darwin Biotech Co, China), 500 ppm water soluble chitosan (85% purity; Shaanxi Rainwood Biotech Co Ltd, China) and 200 ppm L-glutathione (99% purity; Hunan Insen Biotech Co Ltd, China). Since use of liquid polymer is quite common in seed treatment for better and smoother coating or coverage, each of the individual components and combinations of the components was also prepared as a solution in a cellulose-based carrier (Slurry Buddy 110 from […] Science, Ltd.). Baicalin was dissolved in 1.0 ml of DMSO separately prior to addition to the carrier. Chitosan and glutathione were dissolved in 7.8 ml water prior to addition to the 90.0 ml carrier. In each case, the pH of the solution was adjusted to 5.7. […] This liquid flowable formulation can be used as a ready-to-use (RTU) formulation for seed application. […] One drop of the water-based solutions described above was added to the watch glass with the swimming nematode and the reaction of the nematode was recorded for a period of two-minutes. […]

| Compound | Nematode Reaction |
| --- | --- |
| N[C@@H](CCC(=O)N[C@@H](CS)C(=O)NCC(=O)O)C(=O)O [Glutathione, L-glutathione] | Repelling |
| O=C(O)[C@H]1O[C@@H](Oc2cc3oc(-c4ccccc4)cc(=O)c3c(O)c2O)[C@H](O)[C@@H](O)[C@@H]1O [Baicalin, baicalin] | Repelling |
